Data reported in PubChem BioAssay AID435031 (Sanford-Burnham Center for Chemical Genomics, 2010).
The source made the active and inactive calls. No rule for the calls is given here.

These molecules were tested on cytotoxicity counter-screen, luminescence read-out (assay: cytotoxicity of HIV fusion inhibitor analogs, SAR follow-up, cytotoxicity control for HIV fusion inhibitor project, cell-based, luminescence (AID 435031)).

SMILES	CC50
CS(=O)(=O)C1=NSC2=NC(=O)/C(=C\c3cccn3-c3ccc(Cl)cc3)C(=N)N21	> 100 µM (inactive)
O=C(O)c1ccccc1N=Nc1c(O)[nH]c2ccc([N+](=O)[O-])cc12	> 100 µM (inactive)
CCOC(=O)C1=C(C)N=c2sc(=Cc3ccc(OCC(=O)O)cc3)c(=O)n2C1c1ccc(OC(C)C)cc1 (stereo unspecified)	32 µM
N#C/C(=C\c1ccc(OCc2ccc(Cl)cc2)cc1)C(=O)Nc1cccc(C(=O)O)c1	> 100 µM (inactive)
O=C1NC(=S)N(c2ccc(F)cc2)C(=O)/C1=C\c1ccoc1	> 100 µM (inactive)
COc1cc(/C=N/NS(=O)(=O)c2ccc3ccccc3c2)ccc1OCc1ccc(C(=O)O)cc1	> 100 µM (inactive)
CC(C)S(=O)(=O)C1=NSC2=NC(=O)/C(=C\c3ccc(-c4ccccc4)o3)C(=N)N21	> 100 µM (inactive)
CC1(C)CC(=O)C2=C(C1)c1c(ccc3ccccc13)NC2c1cc([N+](=O)[O-])cc([N+](=O)[O-])c1O (stereo unspecified)	> 100 µM (inactive)
O=C1NC(=S)N(c2ccc(F)cc2)C(=O)/C1=C/c1ccco1	> 100 µM (inactive)
CC(C)(C)c1cc(-c2csc(Nc3ccccc3)[n+]2Cc2ccc(C(=O)O)cc2)cc(C(C)(C)C)c1O	13.7 µM
O=C(O)c1ccccc1C(=O)N(Cc1cccc(Oc2ccc(Cl)cc2)c1)[C@H]1CCCc2ccccc21	19 µM
Cc1ccc(S(=O)(=O)Oc2ccc(/C=C3/C(=N)N4C(=NC3=O)SN=C4S(C)(=O)=O)cc2)cc1	91 µM
CCOC(=O)c1sc(N2C(=O)C(O)=C(C(=O)c3ccc(C)o3)C2c2cccc([N+](=O)[O-])c2)nc1C (stereo unspecified)	> 100 µM (inactive)
COc1ccc(OC)c(N2C(=O)/C(=C/c3ccco3)C(=O)NC2=S)c1	> 100 µM (inactive)
CCC(C)(C)C1CCc2c(sc(NC(=O)c3ccccc3C(=O)O)c2C#N)C1 (stereo unspecified)	22 µM
CCC(Sc1nc2ccsc2c(=O)n1Cc1ccc(C(=O)O)cc1)C(=O)Nc1ccc(C)c(Cl)c1 (stereo unspecified)	> 100 µM (inactive)

SMILES	CC50
O=c1c(=Cc2cc([N+](=O)[O-])cc([N+](=O)[O-])c2O)sc2nc3ccccc3n12	> 100 µM (inactive)
COc1cc(C=NNc2ccc(Cl)c(C(=O)O)c2)ccc1OC(=O)c1ccc(F)cc1	> 100 µM (inactive)
O=C(O)CCCN1C(=O)/C(=C/c2ccc(-c3nc4ccccc4s3)o2)SC1=S	> 100 µM (inactive)
O=C(N/N=C/c1c(O)n(C2CCCCC2)c(=S)[nH]c1=O)c1ccccc1O	> 100 µM (inactive)
O=[N+]([O-])c1cc([N+](=O)[O-])c2oc(-c3ccccc3)c(Br)c2c1O	> 100 µM (inactive)
CS(=O)(=O)C1=NSC2=NC(=O)/C(=C\c3ccc(OS(=O)(=O)c4ccccc4)cc3)C(=N)N21	> 100 µM (inactive)
COc1cc(C=NNc2ccc(Cl)c(C(=O)O)c2)ccc1OC(=O)c1ccccc1F	> 100 µM (inactive)
COc1ccccc1NS(=O)(=O)c1cccc(-n2c(O)c(C=Nc3ccccc3C(=O)O)c3ccccc3c2=O)c1	> 100 µM (inactive)
COC(=O)c1sc(-c2ccc(C(C)(C)C)cc2)cc1NC(=O)c1ccccc1C(=O)O	17 µM
Oc1c(Cl)cc(Cl)c(Cl)c1Cc1c(O)c(Cl)cc(Cl)c1Cl	18 µM
Cc1c(Cl)cccc1NS(=O)(=O)c1ccc2c(c1)C1C=CCC1C(c1ccc(C(=O)O)cc1)N2 (stereo unspecified)	> 100 µM (inactive)
COc1ccc(C(=O)Oc2ccc(C=NNc3ccc(Cl)c(C(=O)O)c3)cc2OC)cc1	> 100 µM (inactive)
CSc1nnc(-c2ccccc2N=Cc2c(C)[nH]n(-c3ccc4ccccc4c3)c2=O)c(=O)[nH]1	> 100 µM (inactive)
CC(C)S(=O)(=O)C1=NSC2=NC(=O)/C(=C\c3ccc(-c4cccc(C(=O)O)c4)o3)C(=N)N21	> 100 µM (inactive)
COc1cc(/C=C2\SC(=O)N(c3ccccc3Cl)C2=O)cc([N+](=O)[O-])c1O	> 100 µM (inactive)
